According to article PMC8765293, “Inhibitor-Resistant Mutants Give Important Insights into Candida albicans ABC Transporter Cdr1 Substrate Specificity and Help Elucidate Efflux Pump Inhibition” (Antimicrobial Agents and Chemotherapy, 2022):
Converted amounts (≈) assume the structure as drawn. Read-outs that look alike come from different tables or passages of the source.

How the values were obtained:
[1] = molecular target: wt Cdr1 ATPase activity (Candida albicans, UniProt Q5ANA3); test: biochemical; details: for IC50 / Ki: CDR1 (wt); for Ki: Dixon plot, read-out: Ki (Cdr1 ATPase activity); for Vmax of ATPase activity in the presence of inhibitor: CDR1; for type of inhibition of ATPase activity (Lineweaver-Burk): wt Cdr1
[2] = test system: AD/CDR1 (AD1-8u- overexpressing wt Cdr1); test: MIC, modified CLSI M27-A3 broth microdilution; details: Saccharomyces cerevisiae, read-out: MIC (drug susceptibility)
[3] = test system: AD/CDR1-G521R; test: MIC, modified CLSI M27-A3 broth microdilution; details: for MIC: Saccharomyces cerevisiae, read-out: MIC (drug susceptibility); for Fold-reduced resistance level (MIC) relative to AD/CDR1: G521R, 1 = no change
[4] = test system: AD/CDR1-T1355N; test: MIC, modified CLSI M27-A3 broth microdilution; details: for MIC: Saccharomyces cerevisiae, read-out: MIC (drug susceptibility); for Fold-reduced resistance level (MIC) relative to AD/CDR1: T1355N, 1 = no change
[5] = test system: AD/CDR1-A713P; test: MIC, modified CLSI M27-A3 broth microdilution; details: for Fold-reduced resistance level (MIC) relative to AD/CDR1: A713P, 1 = no change; for MIC: Saccharomyces cerevisiae, read-out: MIC (drug susceptibility)
[6] = test system: AD/pABC3 (empty vector control, sensitive strain); test: microbe, parasite or virus in culture; details: Saccharomyces cerevisiae
[7] = test system: AD/CDR1-M639I; test: MIC, modified CLSI M27-A3 broth microdilution; details: for Fold-reduced resistance level (MIC) relative to AD/CDR1: M639I, 1 = no change; for MIC: Saccharomyces cerevisiae, read-out: MIC (drug susceptibility)
[8] = molecular target: wt Cdr1 (FLC efflux of AD/CDR1 cells) (Candida albicans, UniProt Q5ANA3); details: for lowest inhibitor concentration necessary to achieve the lowest MICFLC / lowest MICFLC in the presence of inhibitor: CDR1; for lowest MICFLC in the presence of inhibitor: FLC 5 to 640 mg/L tested
[9] = test system: AD/pABC3 (empty vector control, sensitive strain); details: cited from earlier work
[10] = molecular target: Cdr1-M639I (FLC transport) (Candida albicans, UniProt Q5ANA3, M639I); test: Agarose diffusion FLC chemosensitization assay; assay type: cell-based; details: 0.25× MICFLC, disc
Procedure: (§1) Compounds were tested for inhibition of FLC transport by yeast strains overexpressing Cdr1 or Cdr1 mutations.

[11] = molecular target: Cdr1-G521R (FLC transport) (Candida albicans, UniProt Q5ANA3, G521R); test: Agarose diffusion FLC chemosensitization assay; assay type: cell-based; details: 0.25× MICFLC, disc
Procedure: as §1

[12] = molecular target: Cdr1-T1355N (FLC transport) (Candida albicans, UniProt Q5ANA3, T1355N); test: Agarose diffusion FLC chemosensitization assay; assay type: cell-based; details: 0.25× MICFLC, disc
Procedure: as §1

[13] = molecular target: Cdr1-A713P (FLC transport) (Candida albicans, UniProt Q5ANA3, A713P); test: Agarose diffusion FLC chemosensitization assay; assay type: cell-based; details: 0.25× MICFLC, disc
Procedure: as §1

[14] = > = only partial inhibition, none = no reduction at highest concentration, read-out: Estimated IC50 for substrate inhibition of the ATPase activity
[15] = read-out: MIC (drug susceptibility)
[16] = read-out: MIC (drug susceptibility), strain AD/pABC3

Chain of wt Cdr1 ATPase activity (Q5ANA3 whole entry): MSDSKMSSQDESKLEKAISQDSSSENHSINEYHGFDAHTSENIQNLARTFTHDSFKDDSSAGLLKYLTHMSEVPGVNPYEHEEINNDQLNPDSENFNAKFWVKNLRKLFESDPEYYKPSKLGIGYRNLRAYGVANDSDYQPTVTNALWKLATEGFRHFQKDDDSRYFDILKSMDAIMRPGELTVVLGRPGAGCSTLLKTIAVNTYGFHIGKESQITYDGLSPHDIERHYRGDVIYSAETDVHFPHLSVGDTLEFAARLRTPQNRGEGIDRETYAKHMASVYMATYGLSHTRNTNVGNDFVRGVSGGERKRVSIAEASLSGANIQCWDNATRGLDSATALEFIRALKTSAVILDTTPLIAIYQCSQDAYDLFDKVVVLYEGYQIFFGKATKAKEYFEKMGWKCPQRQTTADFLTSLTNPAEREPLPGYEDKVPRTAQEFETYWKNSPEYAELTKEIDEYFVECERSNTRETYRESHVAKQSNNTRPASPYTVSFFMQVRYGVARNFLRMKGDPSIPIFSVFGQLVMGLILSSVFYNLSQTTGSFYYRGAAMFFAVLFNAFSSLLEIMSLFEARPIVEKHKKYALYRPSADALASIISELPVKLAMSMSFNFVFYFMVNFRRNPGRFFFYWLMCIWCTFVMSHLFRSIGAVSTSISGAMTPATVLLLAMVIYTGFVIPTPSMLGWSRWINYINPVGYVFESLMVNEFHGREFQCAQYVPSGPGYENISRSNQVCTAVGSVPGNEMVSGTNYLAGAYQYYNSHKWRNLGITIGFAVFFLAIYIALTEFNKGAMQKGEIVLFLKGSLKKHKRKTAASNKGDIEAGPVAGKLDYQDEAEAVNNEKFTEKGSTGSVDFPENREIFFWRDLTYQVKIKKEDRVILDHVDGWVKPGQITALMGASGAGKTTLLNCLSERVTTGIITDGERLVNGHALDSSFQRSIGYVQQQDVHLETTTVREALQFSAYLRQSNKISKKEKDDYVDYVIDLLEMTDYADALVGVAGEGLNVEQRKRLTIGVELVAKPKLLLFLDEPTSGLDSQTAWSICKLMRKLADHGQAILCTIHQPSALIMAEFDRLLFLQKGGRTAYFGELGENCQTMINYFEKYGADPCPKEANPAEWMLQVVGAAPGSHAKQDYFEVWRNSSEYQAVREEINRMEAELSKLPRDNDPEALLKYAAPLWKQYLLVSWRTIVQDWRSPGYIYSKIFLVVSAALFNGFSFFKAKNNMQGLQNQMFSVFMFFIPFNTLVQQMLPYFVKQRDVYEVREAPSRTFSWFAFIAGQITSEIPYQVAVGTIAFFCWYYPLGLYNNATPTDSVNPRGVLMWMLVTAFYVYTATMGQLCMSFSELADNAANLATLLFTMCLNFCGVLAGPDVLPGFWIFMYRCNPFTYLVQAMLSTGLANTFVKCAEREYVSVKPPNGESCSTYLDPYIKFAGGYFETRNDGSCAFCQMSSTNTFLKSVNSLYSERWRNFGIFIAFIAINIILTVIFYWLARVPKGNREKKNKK
Chain of wt Cdr1 (FLC efflux of AD/CDR1 cells) (Q5ANA3 whole entry): as above
Chain of Cdr1-A713P (FLC transport) (Q5ANA3 whole entry A713P, the tested form may be a part): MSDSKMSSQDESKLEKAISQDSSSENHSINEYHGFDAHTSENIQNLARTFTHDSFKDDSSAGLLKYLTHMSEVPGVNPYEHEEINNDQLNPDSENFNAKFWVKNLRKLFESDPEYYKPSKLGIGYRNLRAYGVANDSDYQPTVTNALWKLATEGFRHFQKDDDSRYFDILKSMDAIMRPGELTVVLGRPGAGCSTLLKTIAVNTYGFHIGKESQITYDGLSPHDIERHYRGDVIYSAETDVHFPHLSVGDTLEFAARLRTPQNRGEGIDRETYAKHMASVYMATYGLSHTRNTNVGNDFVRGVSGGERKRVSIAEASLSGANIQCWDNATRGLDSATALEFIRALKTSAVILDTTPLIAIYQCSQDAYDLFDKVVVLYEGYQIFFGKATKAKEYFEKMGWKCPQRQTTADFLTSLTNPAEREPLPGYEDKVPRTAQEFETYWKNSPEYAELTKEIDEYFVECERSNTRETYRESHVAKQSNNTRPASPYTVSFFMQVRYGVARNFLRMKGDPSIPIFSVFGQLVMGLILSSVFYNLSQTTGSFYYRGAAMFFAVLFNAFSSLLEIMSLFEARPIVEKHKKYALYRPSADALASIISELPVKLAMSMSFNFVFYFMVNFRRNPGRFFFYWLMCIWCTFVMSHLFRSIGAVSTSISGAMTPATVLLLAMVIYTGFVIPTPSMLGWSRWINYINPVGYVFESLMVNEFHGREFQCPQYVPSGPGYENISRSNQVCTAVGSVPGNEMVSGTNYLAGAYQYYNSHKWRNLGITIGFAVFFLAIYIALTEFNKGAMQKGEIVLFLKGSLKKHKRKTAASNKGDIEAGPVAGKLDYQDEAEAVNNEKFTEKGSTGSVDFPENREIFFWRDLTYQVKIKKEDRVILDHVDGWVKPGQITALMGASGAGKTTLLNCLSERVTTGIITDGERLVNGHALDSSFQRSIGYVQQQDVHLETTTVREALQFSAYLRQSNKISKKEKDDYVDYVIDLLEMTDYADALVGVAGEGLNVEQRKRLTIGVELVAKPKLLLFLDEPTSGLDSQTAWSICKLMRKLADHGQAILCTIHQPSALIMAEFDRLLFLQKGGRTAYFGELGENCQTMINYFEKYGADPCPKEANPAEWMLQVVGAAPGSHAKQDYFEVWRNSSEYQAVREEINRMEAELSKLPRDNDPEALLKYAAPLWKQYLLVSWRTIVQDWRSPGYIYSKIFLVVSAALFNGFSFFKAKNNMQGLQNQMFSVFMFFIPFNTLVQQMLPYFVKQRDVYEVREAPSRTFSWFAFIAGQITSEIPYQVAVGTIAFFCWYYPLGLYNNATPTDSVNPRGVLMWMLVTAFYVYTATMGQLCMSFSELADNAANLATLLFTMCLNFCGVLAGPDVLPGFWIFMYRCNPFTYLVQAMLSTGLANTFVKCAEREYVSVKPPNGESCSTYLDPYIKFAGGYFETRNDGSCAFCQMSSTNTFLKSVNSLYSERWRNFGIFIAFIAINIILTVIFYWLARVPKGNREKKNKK

| Molecule | MIC [2] [µg/mL] | MIC [3] [µg/mL] | MIC [4] [µg/mL] | Fold-reduced resistance level (MIC) relative to AD/CDR1 [4] [fold] | Fold-reduced resistance level (MIC) relative to AD/CDR1 [5] [fold] | MIC [5] [µg/mL] | Fold-reduced resistance level (MIC) relative to AD/CDR1 [7] [fold] | MIC [7] [µg/mL] | Fold-reduced resistance level (MIC) relative to AD/CDR1 [3] [fold] | MIC [6, 16] [µg/mL] | Vmax of ATPase activity in the presence of inhibitor ([1]; [I] 0.5 μM) [nmol/min/mg] | type of inhibition of ATPase activity (Lineweaver-Burk) [1] | other results |
| --- | --- | --- | --- | --- | --- | --- | --- | --- | --- | --- | --- | --- | --- |
| CC(=O)N1CCN(c2ccc(OCC3COC(Cn4ccnc4)(c4ccc(Cl)cc4Cl)O3)cc2)CC1 (stereo not shown) [KTC, ketoconazole] | 8 (≈ 15.1 µM) | 0.125 (≈ 0.235 µM) | 4 (≈ 7.53 µM) | 2 | 8 | 1 (≈ 1.88 µM) | 2 | 4 (≈ 7.53 µM) |  |  |  |  | IC50 [1, 14]: 13000 nM; MIC [6, 15]: 0.008 µg/mL (≈ 0.0151 µM) |
| C[C@@H]1C[C@@H]([C@H](O)CC2CC(=O)NC(=O)C2)C(=O)[C@@H](C)C1 [CHX, cycloheximide] | 2 (≈ 7.11 µM) | 1 (≈ 3.55 µM) | 2 (≈ 7.11 µM) | 1 | 2 | 1 (≈ 3.55 µM) | 2 | 1 (≈ 3.55 µM) | 2 |  |  |  | MIC [6, 15]: 0.016 µg/mL (≈ 0.0569 µM) |
| C[C@@H](c1ncncc1F)[C@](O)(Cn1cncn1)c1ccc(F)cc1F [VRC, voriconazole] | 8 (≈ 22.9 µM) | 1 (≈ 2.86 µM) | 8 (≈ 22.9 µM) | 1 | 2 | 4 (≈ 11.5 µM) | 1 | 8 (≈ 22.9 µM) | 8 | 0.016 (≈ 0.0458 µM) |  |  |  |
| CCC(C)n1ncn(-c2ccc(N3CCN(c4ccc(OCC5COC(Cn6cncn6)(c6ccc(Cl)cc6Cl)O5)cc4)CC3)cc2)c1=O (stereo not shown) [ITC, itraconazole] | 32 (≈ 45.3 µM) | 0.25 (≈ 0.354 µM) | 16 (≈ 22.7 µM) | 2 |  | 1 (≈ 1.42 µM) | 2 | 16 (≈ 22.7 µM) | 128 | 0.031 (≈ 0.0439 µM) |  |  | IC50 [1, 14]: > 32000 nM |
| CC[C@@H]([C@H](C)O)n1ncn(-c2ccc(N3CCN(c4ccc(OC[C@@H]5CO[C@@](Cn6cncn6)(c6ccc(F)cc6F)C5)cc4)CC3)cc2)c1=O [PSC, posaconazole] | 32 (≈ 45.7 µM) | 0.063 (≈ 0.0899 µM) | 2 (≈ 2.85 µM) | 16 |  | 1 (≈ 1.43 µM) | 16 | 2 (≈ 2.85 µM) |  | 0.016 (≈ 0.0228 µM) |  |  |  |
| CC[C@H]1/C=C/C=C/C[C@@H](C)[C@H](O)[C@@](C)(O)C(=O)[C@@H](C)[C@H](O)[C@@H](C)C(=O)[C@@H](C)[C@H](O)[C@@H](C)/C=C/C(=O)O[C@@H]2[C@H](C)[C@H](CC1)O[C@]1(CC[C@H](C)[C@H](C[C@@H](C)O)O1)[C@H]2C [Oligomycin, oligomycin] |  |  |  |  |  |  |  |  |  |  | 185 | noncompetitive inhibition | Ki [1]: 540 ± 10 nM; Vmax of ATPase activity in the presence of inhibitor ([1]; [I] 1.0 μM): 132 nmol/min/mg |
| C=CC[C@@H]1/C=C(\C)C[C@H](C)C[C@H](OC)[C@H]2O[C@@](O)(C(=O)C(=O)N3CCCC[C@H]3C(=O)O[C@H](/C(C)=C/[C@@H]3CC[C@@H](O)[C@H](OC)C3)[C@H](C)[C@@H](O)CC1=O)[C@H](C)C[C@@H]2OC [FK506] |  |  |  |  |  |  |  |  |  |  | 233 | noncompetitive inhibition | FICI (inhibitor/FLC combination) [8]: <0.26; IC50 [8]: 2500 nM; lowest inhibitor concentration necessary to achieve the lowest MICFLC [8]: 40 µM; lowest MICFLC in the presence of inhibitor [8]: 5 mg/L; Ki [1]: 1210 ± 240 nM; IC50 ([1]; from Fig. 4, read-out: IC50 for inhibition of Cdr1 ATPase activity): 1250 nM; Vmax of ATPase activity in the presence of inhibitor ([1]; [I] 1.0 μM): 164 nmol/min/mg; synergy with the Cdr1 substrates FLC and R6G [9]: no synergy; susceptibility of FLC transport to inhibitor on agar [10]: remained susceptible; susceptibility of FLC transport to inhibitor on agar [11]: resistant; susceptibility of FLC transport to inhibitor on agar [12]: remained susceptible; susceptibility of FLC transport to inhibitor on agar [13]: resistant |
| beauvericin |  |  |  |  |  |  |  |  |  |  | 63 | noncompetitive inhibition | FICI (inhibitor/FLC combination) [8]: <0.13; lowest inhibitor concentration necessary to achieve the lowest MICFLC [8]: 1.25 µM; lowest MICFLC in the presence of inhibitor [8]: 5 mg/L; Vmax of ATPase activity in the presence of inhibitor ([1]; [I] 0.2 μM): 132 nmol/min/mg; synergy with the Cdr1 substrates FLC and R6G [9]: no synergy; susceptibility of FLC transport to inhibitor on agar [11]: resistant; susceptibility of FLC transport to inhibitor on agar [12]: slightly more resistant; susceptibility of FLC transport to inhibitor on agar [13]: remained susceptible |
